# Experimental data reported in article PMC5114558, “Reader domain specificity and lysine demethylase-4 family function” (Nature Communications, 2016).
# Positions count from the first letter of the chain named.
# Tests used:
# [1] = target: T1, KDM4A DTD (human KDM4A double tudor domain, 895–1011aa) (Homo sapiens, UniProt O75164); experiment: fluorescence polarization (FP) binding, KDM4A-DTD wild-type; conditions: pH 7.4, read-out: Kd, KDM4A-DTD wild-type
# T1 construct: DNA encoding DTDs (KDM4A 895–1011aa, KDM4B 917–1031aa and KDM4C 877–991aa); (His)6-HaloTag (pFN29) or (His)6 (pET28b); made in house; host or cells: Escherichia coli BL21 (DE3)
# T1 sequence (O75164 895-1011): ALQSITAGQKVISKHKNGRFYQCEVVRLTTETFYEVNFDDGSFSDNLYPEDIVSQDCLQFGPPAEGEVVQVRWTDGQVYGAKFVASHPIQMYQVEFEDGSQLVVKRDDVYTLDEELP
# Text: (§1) KDM4 protein sequences used in this study correspond to Uniprot ID: O75164 (human KDM4A, isoform 1), O94953 (human KDM4B, isoform1) and Q9H3R0 (human KDM4C, isoform1). Plasmid encoding KDM4A DTD was kindly provided by R-M Xu (Chinese Academy of Sciences). Complementary DNA encoding human KDM4B-DTD was synthesized (Integrated DNA Technologies). Plasmid containing cDNA of full-length KDM4C (clone ID: HsCD00341594) was obtained from Harvard Plasmid Repository. DNA encoding DTDs (KDM4A 895–1011aa, KDM4B 917–1031aa and KDM4C 877–991aa) were cloned into pFN29 (Promega) with N-terminal (His)6-HaloTag or pET28b with N-terminal (His)6 Tag using In-Fusion HD cloning kit (Clontech). Plasmids encoding Xenopus laevis core histones were a generous gift of K. Luger (University of Colorado-Boulder). Site-directed mutagenesis was performed with Q5 Site-Directed Mutagenesis Kit (New England Biolabs).
# (§2) Peptide sequences are given in Supplementary Table 1. […] A no-protein control with only peptide probe was included. Polarization at each concentration was measured as triplicates in 384-well polystyrene black microplates (Thermo Fisher Scientific 262260) by Biotek Synergy H4 multimode plate reader (light source: xenon flash, offset from top: 7 mm, sensitivity: 60%, excitation: 485/20 nm, emission: 528/20 nm, both parallel and perpendicular, normal read speed). Fraction bound (Fb) at each concentration was calculated based on the corresponding polarization values (P): Fbc=(Pc−Pmin)/(Pmax−Pmin), where Pmin is the polarization value of no-protein control and Pmax is the polarization value of the saturation value for that peptide. Dissociation constants (Kd) were derived by KaleidaGraph, Synergy Software (version 4.1.3) using the following equation: Fb=[protein]/([protein]+Kd).
# [2] = target: T2, KDM4B DTD (human KDM4B double tudor domain, 917–1031aa) (Homo sapiens, UniProt O94953); experiment: fluorescence polarization (FP) binding, KDM4B-DTD wild-type; conditions: Fig. 1c, 3 nM fluorescein-labelled peptide, pH 7.4, ± s.d. from three experimental replicates, read-out: binding constant (FP), KDM4B-DTD
# T2 construct: DNA encoding DTDs (KDM4A 895–1011aa, KDM4B 917–1031aa and KDM4C 877–991aa); (His)6-HaloTag (pFN29) or (His)6 (pET28b); made in house; host or cells: Escherichia coli BL21 (DE3)
# T2 sequence (O94953 917-1031): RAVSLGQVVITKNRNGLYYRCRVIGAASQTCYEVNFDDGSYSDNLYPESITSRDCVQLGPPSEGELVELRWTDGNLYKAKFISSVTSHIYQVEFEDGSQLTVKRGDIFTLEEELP
# Text: as §1, §2
# [3] = target: T3, KDM4C DTD (human KDM4C double tudor domain, 877–991aa) (Homo sapiens, UniProt Q9H3R0); experiment: fluorescence polarization (FP) binding, KDM4C-DTD wild-type; conditions: Fig. 1c, 3 nM fluorescein-labelled peptide, pH 7.4, ± s.d. from three experimental replicates, read-out: binding constant (FP), KDM4C-DTD
# T3 construct: DNA encoding DTDs (KDM4A 895–1011aa, KDM4B 917–1031aa and KDM4C 877–991aa); (His)6-HaloTag (pFN29) or (His)6 (pET28b); made in house; host or cells: Escherichia coli BL21 (DE3)
# T3 sequence (Q9H3R0 877-991): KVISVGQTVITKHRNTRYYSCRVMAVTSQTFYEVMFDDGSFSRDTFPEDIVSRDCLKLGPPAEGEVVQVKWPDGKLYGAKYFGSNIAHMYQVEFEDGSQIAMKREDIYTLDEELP
# Text: as §1, with “Plasmids encoding Xenopus laevis core histones were a generous gift of K. Luger (University of Colorado-Boulder). Site-directed mutagenesis was performed with Q5 Site-Directed Mutagenesis Kit (New England Biolabs).” left out
# (§3) Peptide sequences are given in Supplementary Table 1. […] Polarization at each concentration was measured as triplicates in 384-well polystyrene black microplates (Thermo Fisher Scientific 262260) by Biotek Synergy H4 multimode plate reader (light source: xenon flash, offset from top: 7 mm, sensitivity: 60%, excitation: 485/20 nm, emission: 528/20 nm, both parallel and perpendicular, normal read speed). Fraction bound (Fb) at each concentration was calculated based on the corresponding polarization values (P): Fbc=(Pc−Pmin)/(Pmax−Pmin), where Pmin is the polarization value of no-protein control and Pmax is the polarization value of the saturation value for that peptide. […]
# [4] = target: T4, KDM4A-DTD Y973A (Homo sapiens, UniProt O75164, Y973A); experiment: FP binding, KDM4A-DTD Y973A; conditions: pH 7.4, aromatic cage mutant, Fig. 2e (± s.d., three replicates) and text
# T4 construct: DNA encoding DTDs (KDM4A 895–1011aa, KDM4B 917–1031aa and KDM4C 877–991aa); (His)6-HaloTag (pFN29) or (His)6 (pET28b); made in house; host or cells: Escherichia coli BL21 (DE3)
# T4 sequence (O75164 895-1011 Y973A limits assumed): T1 sequence (O75164 895-1011) with Y79A
# Text: as §1, with “Plasmids encoding Xenopus laevis core histones were a generous gift of K. Luger (University of Colorado-Boulder). Site-directed mutagenesis was performed with Q5 Site-Directed Mutagenesis Kit (New England Biolabs).” left out
# as §3
# [5] = target: T5, KDM4A-DTD N940A (Homo sapiens, UniProt O75164, N940A); experiment: FP binding, KDM4A-DTD N940A; conditions: pH 7.4, Fig. 2g, 4g (± s.d., three replicates) and text
# T5 construct: DNA encoding DTDs (KDM4A 895–1011aa, KDM4B 917–1031aa and KDM4C 877–991aa); (His)6-HaloTag (pFN29) or (His)6 (pET28b); made in house; host or cells: Escherichia coli BL21 (DE3)
# T5 sequence (O75164 895-1011 N940A): T1 sequence (O75164 895-1011) with N46A
# Text: as §1, with “Plasmids encoding Xenopus laevis core histones were a generous gift of K. Luger (University of Colorado-Boulder). Site-directed mutagenesis was performed with Q5 Site-Directed Mutagenesis Kit (New England Biolabs).” left out
# as §3
# [6] = target: T6, KDM4A-DTD N931R (Homo sapiens, UniProt O75164, N931R); experiment: FP binding, KDM4A-DTD N931R; conditions: pH 7.4, Fig. 2j (± s.d., three replicates) and text, read-out: binding affinity, KDM4A-DTD N931R
# T6 construct: DNA encoding DTDs (KDM4A 895–1011aa, KDM4B 917–1031aa and KDM4C 877–991aa); (His)6-HaloTag (pFN29) or (His)6 (pET28b); made in house; host or cells: Escherichia coli BL21 (DE3)
# T6 sequence (O75164 895-1011 N931R limits assumed): T1 sequence (O75164 895-1011) with N37R
# Text: as §1, with “Plasmids encoding Xenopus laevis core histones were a generous gift of K. Luger (University of Colorado-Boulder). Site-directed mutagenesis was performed with Q5 Site-Directed Mutagenesis Kit (New England Biolabs).” left out
# as §3
# [7] = target: T7, KDM4A-DTD N931D (Homo sapiens, UniProt O75164, N931D); experiment: FP binding, KDM4A-DTD N931D; conditions: pH 7.4, Fig. 2j (± s.d., three replicates), Supplementary Fig. 2f and text
# T7 construct: DNA encoding DTDs (KDM4A 895–1011aa, KDM4B 917–1031aa and KDM4C 877–991aa); (His)6-HaloTag (pFN29) or (His)6 (pET28b); made in house; host or cells: Escherichia coli BL21 (DE3)
# T7 sequence (O75164 895-1011 N931D): T1 sequence (O75164 895-1011) with N37D
# Text: as §1, with “Plasmids encoding Xenopus laevis core histones were a generous gift of K. Luger (University of Colorado-Boulder). Site-directed mutagenesis was performed with Q5 Site-Directed Mutagenesis Kit (New England Biolabs).” left out
# as §3
# [8] = target: T8, KDM4A-DTD triple mutant N931D/D939R/D945R (DRR) (Homo sapiens, UniProt O75164, D939R/D945R/N931D); experiment: FP binding, KDM4A-DTD DRR mutant
# T8 construct: DNA encoding DTDs (KDM4A 895–1011aa, KDM4B 917–1031aa and KDM4C 877–991aa); (His)6-HaloTag (pFN29) or (His)6 (pET28b); made in house; host or cells: Escherichia coli BL21 (DE3)
# T8 sequence (O75164 895-1011 N931D/D939R/D945R): T1 sequence (O75164 895-1011) with N37D, D45R, D51R
# Text: as §1, with “Plasmids encoding Xenopus laevis core histones were a generous gift of K. Luger (University of Colorado-Boulder). Site-directed mutagenesis was performed with Q5 Site-Directed Mutagenesis Kit (New England Biolabs).” left out
# as §3
# [9] = target: T9, KDM4B-DTD Y993A (Homo sapiens, UniProt O94953, Y993A); experiment: FP binding, KDM4B-DTD Y993A; conditions: aromatic cage mutant, Supplementary Fig. 4d, value printed in peer review file
# T9 construct: DNA encoding DTDs (KDM4A 895–1011aa, KDM4B 917–1031aa and KDM4C 877–991aa); (His)6-HaloTag (pFN29) or (His)6 (pET28b); made in house; host or cells: Escherichia coli BL21 (DE3)
# T9 sequence (O94953 917-1031 Y993A): T2 sequence (O94953 917-1031) with Y77A
# Text: as §1, with “Plasmids encoding Xenopus laevis core histones were a generous gift of K. Luger (University of Colorado-Boulder). Site-directed mutagenesis was performed with Q5 Site-Directed Mutagenesis Kit (New England Biolabs).” left out
# as §3
structure (smiles),measurement,setting,value
CC(C)C[C@H](NC(=O)[C@H](CCC(N)=O)NC(=O)[C@H](CCCCN)NC(=O)[C@H](CCCNC(=N)N)NC(=O)c1ccc2c(c1)C(=O)OC21c2ccc(O)cc2Oc2cc(O)ccc21)C(=O)N[C@@H](C)C(=O)N[C@H](C(=O)N[C@@H](CCCC[N+](C)(C)C)C(=O)N[C@@H](C)C(=O)N[C@@H](C)C(=O)N[C@@H](CCCNC(=N)N)C(=O)N[C@@H](CCCCN)C(=O)N[C@@H](CO)C(=O)N[C@@H](C)C(=O)N1CCC[C@H]1C(=O)N[C@@H](C)C(=O)N[C@H](C(=O)O)[C@@H](C)O)[C@@H](C)O [H3K23me3],Kd,[1],2.2 µM
same,Kd,[2],10.3 ± 1.2 µM
same,Kd,[3],73.6 ± 3.9 µM
same,Kd,[4],285 µM
same,Kd,[5],57.4 µM
same,Kd,[6],73.9 µM
same,Kd,[7],0.85 µM
same,Kd of DRR mutant,[8],low micromolar Kd value
same,Kd,[9],327 µM
